US20070243146A1, “Vitamin K1 as Energizer in Cosmetic Formulations” (priority 2004, published 2007)

Key:
eukaryotic cell lines = conditions: cited from earlier work
[1] = test system: human primary fibroblasts; test: In vitro analysis of ATP levels in human epidermal fibroblasts (ViaLight Plus ATP assay); type: cell-based
Protocol: The biological endpoint in the example is the energy level of each individual cell. This is determined quantitatively by the level of adenosine triphosphate (ATP), which is the common energy storage molecule in human cells.
Primary epidermal fibroblast were isolated from human foreskin and cultured in DMEM with 10% fetal-bovine serum-(FBS), penicillin, and streptomycin. The cells were maintained in a growth chamber at 37° C. and 5% CO2 and used for these kinds of experiments between passage 8 and 12. Fibroblasts were transferred to 96 well plates and allowed to attach for 5 h in standard medium before a serum starvation with 1% FBS over 4 days was initiated.
Epidermal fibroblasts were treated between 4 h and 48 h with vitamin K1 at concentrations up to 44 μM in DMEM. After variing incubation time, the ATP-assay was performed with the High Sensitivy Cell Proliferation Assay (Via light Plus, Cambrex). The procedure was done according to the manufacturers recommendations. Briefly, the culture plate was removed from the incubator and was allowed to cool down to room temperature for at least 5 minutes, then 50 μl of Cell Lysis Reagent were added to each well and incubated 10 minutes, 100 μl of AMR PLUS were added to each well and incubated for 2 minutes at room temperature. The plate was analysed in a luminometer.

[2] = 45 mg/day, women with osteoporosis; cited from earlier work

COC1=C(OC)C(=O)C(C/C=C(\C)CC/C=C(\C)CC/C=C(\C)CC/C=C(\C)CC/C=C(\C)CC/C=C(\C)CC/C=C(\C)CC/C=C(\C)CC/C=C(\C)CCC=C(C)C)=C(C)C1=O [coenzyme Q10]
stimulation of cell growth via transplasma membrane electron transport (eukaryotic cell lines): able to stimulate these cells

CC1=C(C/C=C(\C)CCC[C@H](C)CCC[C@H](C)CCCC(C)C)C(=O)c2ccccc2C1=O [vitamin K1, phytomenadione]
incubation time at which maximum stimulation of ATP levels is reached ([1]; 2 μM vitamin K1, serum-starved fibroblasts, FIG. 1): about 16 h
concentration with the most promising induction of ATP levels ([1]; dose-response at two time points, no correlation to the time point, FIG. 2): 2 µM
stimulation of cell growth via transplasma membrane electron transport (eukaryotic cell lines): no efficacy

menaquinone [vitamin K2]
effect on loss of bone mineral density [2]: slow down but not prevent a progressive loss of bone mineral density
effect on risk of bone fractures [2]: reduce the risk of bone fractures
